How the values were obtained:
HGF protein = test: Growth factor protein quantitation in DP cell medium, HGF; type: cell-based, human; conditions: for protein_HGF: DP cell medium
Source text: (§1) Next, we investigated the downstream effects of P5 on hair growth factor genes and proteins in DP cells. […] We tested whether P5 can also increase the mRNA levels and proteins of hair growth factors in DP cells: IGF‐1, VEGF, HGF, platelet‐derived growth factor alpha (PDGFA), and fibroblast growth factor (FGF) 7, which are known to induce or maintain the anagen phase of the hair cycle (Jindo et al, [1994]; Philpott et al, [1994]; Yano et al, [2001]; Jang, [2005]; Tomita et al, [2006]; Iino et al, [2007]).
Human DP cells were grown on a 100‐mm cell culture dish to 100% confluency. After washed by PBS three times, the cells were cultured with serum‐free DMEM and treated with P5. After 48 h, the medium was collected and filtered by a […]. The filtrate was then concentrated using a centrifugal concentrator (Vivaspin 6, 10‐kDa molecular weight cutoff, centrifuged 2,600 g at 4°C for 13 min, Sartorius Stedim Biotech). The signals of each protein in the concentrated media were detected and quantified, based on the enzyme‐linked immunosorbent assay (Human Cytokine Antibody Array C2000, RayBiotech).

PDGFA mRNA = test: qRT-PCR growth factor gene expression in DP cells, PDGFA; type: cell-based, human; conditions: for mRNA_PDGFA: DP cells
Source text: as §1
(§2) Total RNA was isolated from P5‐treated DP cells using RNAiso Plus (#9109; TaKaRa). We used the total RNA (1 µg) for cDNA synthesis using a RevertAid First Strand cDNA Synthesis Kit (Thermo Fisher) according to the manufacturer's instructions. The mRNA expression levels were quantified on a 7500 Real‐time PCR System (Thermo Fisher) using TB Green Premix Ex Taq (TaKaRa Bio): human IGF‐1, VEGF, HGF, PDGFA, FGF7, and glyceraldehyde 3‐phosphate dehydrogenase (GAPDH) (Appendix Table S2). The relative expression levels of each gene were determined by the 2^‐ΔΔCT method.

Adipor1−/− mice = test: Mouse hair cycle modulation, hair cycle score, Adipor1−/− mice; type: in vivo; conditions: n = 5 mice/group, 35 days
Source text: To test whether the effect of P5 is mediated through AdipoR1 in vivo, we used Adipor1 ^−/− mice (Yamauchi et al, [2007]; Okada‐Iwabu et al, [2013]). […] Consistently, the anagen induction effects of P5 was abolished in the Adipor1 ^−/− mice (Fig 4I and J), in contrast to in WT mouse (Appendix Fig S2). […] Taken together, topical P5 treatment can accelerate hair growth through AdipoR1 in vivo.
For the hair cycle modulation experiment, Adipoq ^−/− (stock #008195; JAX) (Ma et al, [2002]), Adipor1 ^−/− (Yamauchi et al, [2007]; Okada‐Iwabu et al, [2013]), or C57BL/6 (KOATECH) female mice was used (Müller‐Röver et al, [2001]). They were housed (up to four animals per cage; 23 ± 2°C, 8:00–20:00, 12 h/12 h light/dark cycle). Mice were fed a standard chow diet and provided food and water ad libitum. Mice were randomly allocated and shaved dorsally at 7.5 weeks of age. […] The mouse hair growth score (a value from 0 to 100 based on the skin pigmentation and hair shaft density) was monitored and documented at designated days with the experimenters being blind to the conditions, following a previous study (Chai et al, [2019]). […] On day 35, we obtained dorsal cutaneous tissue for histological analysis: anagen induction scores (calculated using an assigned arbitrary score; telogen = 1, anagen I–VI = 2–7) (Müller‐Röver et al, [2001]). […]

[1] = Transdermal delivery in ex vivo human skin tissue culture, qualitative MS of dermal lysate; type: in vitro ADME; conditions: 50 mM in DMSO placed daily, 5 days, 37°C, dermal lysate in 50% methanol
Source text: Next, we checked whether topically applied P5 can be delivered into human skin using ex vivo skin tissue culture model (Fig EV4A) (Haslam et al, [2018]). After topical application of vehicle or P5 on the ex vivo skin tissue, the dermal lysate of each tissue was examined by the qualitative mass spectrometry (MS). […] To trace the origin of P5, we used isotope‐marked P5 (P5*), in which carbon (^12C) atoms of Gly were substituted with isotope carbon atoms (^13C) increasing the molecular weight by 2 compared to that of original P5 (Fig EV4B). […] Collectively, P5 can be transdermally delivered into human skin.
Topical application of peptides on ex vivo skin study was performed as described previously (Haslam et al, [2018]). Briefly, full thickness skin tissue from cadavers within 48 h after death was acquired and biopsied using a 6 mm punch. The skin tissue was acclimatized in supplemented Williams’ E media with L‐glutamine (2 mM), penicillin‐streptomycin solution (1×), hydrocortisone (10 ng/ml), and insulin (100 ng/ml) overnight at 37°C in a 5% CO2 atmosphere. After acclimatization, the skin tissue was carefully pulled through a cell strainer with the epidermis exposed to the air, leaving the dermis submerged in the culture media. […] The lysate was qualitatively analyzed by a MS system (API 4000 Q‐trap; AB SCIEX).

IGF-1 mRNA = test: qRT-PCR growth factor gene expression in DP cells, IGF-1; type: cell-based, human; conditions: for mRNA_IGF1: DP cells
Source text: as §1, §2

[2] = P5 5μM, relative to Control = 1, replicate 1
[3] = P5 5μM, relative to Control = 1, replicate 2
[4] = P5 5μM, relative to Control = 1, replicate 3
[5] = P5 25μM, relative to Control = 1, replicate 1
[6] = P5 25μM, relative to Control = 1, replicate 2
[7] = P5 25μM, relative to Control = 1, replicate 3
[8] = P5 5μM, relative to Control = 1, replicate 4
[9] = P5 25μM, relative to Control = 1, replicate 4

In the case of “GLYYF [P5, GST-fused (GST-P5) in pulldown assays]”, the protein_HGF (HGF protein; [2]) is reported as 1.103, the protein_HGF (HGF protein; [3]) is reported as 1.31 and the protein_HGF (HGF protein; [4]) is reported as 1.677. For the same substance, the protein_HGF (HGF protein; [5]) was 1.711, the protein_HGF (HGF protein; [6]) was 2.432 and the protein_HGF (HGF protein; [7]) was 3.924. The “HGF protein expression level” value (HGF protein; P5-treated DP cells, 48 h medium, n = 3) was “elevated”, the mRNA_PDGFA (PDGFA mRNA; [2]) was 1.237 and the mRNA_PDGFA (PDGFA mRNA; [3]) was 1.013. It also gave a mRNA_PDGFA (PDGFA mRNA; [4]) of 1.221, a mRNA_PDGFA (PDGFA mRNA; [8]) of 1.252 and a mRNA_PDGFA (PDGFA mRNA; [5]) of 1.5777. For the same substance, the mRNA_PDGFA (PDGFA mRNA; [6]) was 1.8805, the mRNA_PDGFA (PDGFA mRNA; [7]) was 1.22 and the mRNA_PDGFA (PDGFA mRNA; [9]) was 1.95. For the same substance, the “PDGFA mRNA expression” value (PDGFA mRNA; P5-treated DP cells, n = 4) was “significantly increased”, the “Anagen induction effects / hair cycle scores vs vehicle” value (Adipor1−/− mice) was “abolished” and the “Detection in skin dermis after topical application (transdermal delivery)” value [1] was “qualitatively detected”. For the same substance, the mRNA_IGF1 (IGF-1 mRNA; [2]) was 1.775, the mRNA_IGF1 (IGF-1 mRNA; [3]) was 0.9141 and the mRNA_IGF1 (IGF-1 mRNA; [4]) was 1.9981. The mRNA_IGF1 (IGF-1 mRNA; [8]) was 0.5956, the mRNA_IGF1 (IGF-1 mRNA; P5 5μM, relative to Control = 1, replicate 5) was 0.9696 and the mRNA_IGF1 (IGF-1 mRNA; [5]) was 4.048. It also gave a mRNA_IGF1 (IGF-1 mRNA; [6]) of 1.581, a mRNA_IGF1 (IGF-1 mRNA; [7]) of 3.012 and a mRNA_IGF1 (IGF-1 mRNA; [9]) of 4.414. The mRNA_IGF1 (IGF-1 mRNA; P5 25μM, relative to Control = 1, replicate 5) was 1.2502 and the “IGF-1 mRNA expression” value (IGF-1 mRNA; P5-treated DP cells, n = 5) was “significantly increased”.

— PMC8495455, “Discovery of a transdermally deliverable pentapeptide for activating AdipoR1 to promote hair growth” (EMBO Molecular Medicine, 2021)
